Laboratory results: PubChem BioAssay (NCI)
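In this assay, cells in 96-well plates receive the compound at five concentrations for 48 hours. Endpoints are linearly interpolated between the surrounding concentrations. TGI is the concentration that stops growth completely.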

Tests used:
Assay in all cases: DTP human tumour cell line panel, 48 h
[1] = tested on: HCT-116 colon
[2] = tested on: TK-10 renal
[3] = tested on: CAKI-1 renal
[4] = tested on: HCT-15 colon
[5] = tested on: EKVX NSCLC
[6] = tested on: CCRF-CEM leukemia
[7] = tested on: SK-MEL-2 melanoma
[8] = tested on: OVCAR-4 ovarian
[9] = tested on: MDA-MB-231 breast
[10] = tested on: MDA-N
[11] = tested on: BT-549 breast
[12] = tested on: HS 578T breast
[13] = tested on: 786-0 renal
[14] = tested on: HT29 colon
[15] = tested on: HOP-92 NSCLC
[16] = tested on: LOX IMVI melanoma
[17] = tested on: SN12C renal
[18] = tested on: SK-MEL-5 melanoma
[19] = tested on: UO-31 renal
[20] = tested on: MCF7 breast
[21] = tested on: SR leukemia
[22] = tested on: DU-145 prostate
[23] = tested on: MOLT-4 leukemia
[24] = tested on: HCC-2998 colon
[25] = tested on: T-47D breast
[26] = tested on: RPMI-8226 leukemia
[27] = tested on: NCI-H460 lung
[28] = tested on: NCI-H226 lung
[29] = tested on: SF-295 CNS
[30] = tested on: HL-60(TB) leukemia
[31] = tested on: COLO 205 colon
[32] = tested on: PC-3 prostate
[33] = tested on: SK-OV-3 ovarian
[34] = tested on: UACC-62 melanoma
[35] = tested on: IGROV1 ovarian
[36] = tested on: SK-MEL-28 melanoma
[37] = tested on: OVCAR-3 ovarian
[38] = tested on: NCI/ADR-RES ovarian
[39] = tested on: SF-539 CNS
[40] = tested on: KM12 colon
[41] = tested on: A549 NSCLC
[42] = tested on: M14 melanoma
[43] = tested on: SNB-19 CNS
[44] = tested on: NCI-H522 lung
[45] = tested on: A498 renal
[46] = tested on: SNB-75 CNS
[47] = tested on: MDA-MB-435
[48] = tested on: MALME-3M melanoma
[49] = tested on: OVCAR-8 ovarian
[50] = tested on: SW-620 colon
[51] = tested on: K-562 leukemia
[52] = tested on: UACC-257 melanoma
[53] = tested on: U251 CNS
[54] = tested on: ACHN renal
[55] = tested on: HOP-62 NSCLC
[56] = tested on: OVCAR-5 ovarian
[57] = tested on: NCI-H23 lung

Measured: TGI

O=S1OC[C@H](CCCl)O1 (some centres not stated)
> 100 µM: all assays above
